Assay results published in article PMC8198792, “Prediction of Anticancer Peptides with High Efficacy and Low Toxicity by Hybrid Model Based on 3D Structure of Peptides” (International Journal of Molecular Sciences, 2021).
Bridge positions count the residues as written; N and C are the ends. Peptide text beside a SMILES is read from it.

How the values were obtained:
[1] = test system: 2% sheep red blood cells (SRBC); assay: Hemolysis assay; assay type: cell-based
Method: The 2% sheep red blood cells (SRBC) were purchased from Nanjing Senbeijia Biological Technology Co., Ltd (Nangjing, China). A total of 4 mL of 2% SRBC was taken, rinsed twice with 4 mL of PBS by centrifugation for 5 min at 3000 rpm and the precipitates were resuspended in 4 mL of PBS. We added 100 μL of 2% SRBC to each well of the 96-well plate and then added 100 μL peptide solutions of different concentrations (2, 4, 8, 16, 32, 64, 128 and 256 μM) in triplicate at 37 °C for 1 h. 100 μL of PBS buffer and 100 uL of Triton X-100 0.1% (w/v) were mixed with SRBC as negative and positive controls, respectively. All samples were centrifuged at 3000 rpm for 5 min, 100 μL supernatant was collected and transferred to a new 96-well plate, and its absorbance was measured at 540 nm. The calculation formula of hemolysis rate is as follows. (5) % Hemolysis=absorbancesample-absorbancenegative/absorbancepositive-absorbancenegative×100

[2] = test system: Human breast cancer cell line (MCF7); assay type: cell-based; settings: MTT assay, 6000 cells per well, peptides 0.5-128 μM for 24 h, triplicate, absorbance 570 and 630 nm; read-out: IC50 (μM) MCF7
From the text: (§1) Five peptides were randomly selected from the candidate ACPs and synthesized by Changzhou Kanglong Biotech Ltd (Changzhou, China). using 9-fuorenylmethoxy carbonyl (FMOC) solid phase synthesis technology. The synthetic peptide was identified by mass spectrometry (MS), and the purity >95% by high performance liquid chromatography (HPLC). Human breast cancer cell line (MCF7), lung cancer cell line (A549), cervical cancer cell line (HeLa), colorectal adenocarcinoma cell line (LoVo) and human embryonic kidney cells (293T) were preserved in our laboratory. At 37 °C under 5/95% CO2/air condition, all cell lines were cultured in Dulbecco’s modified Eagle medium (DMEM) supplemented with 10% (v/v) fetal bovine serum (FBS, Gibco, Carlsbad, CA, USA) and 1% (v/v) penicillin/streptomycin (Sangon Biotech, Shanghai, China).
(§2) Human tumor cell lines MCF7, A549, HeLa and LoVo were used as experimental materials to detect the anticancer activity of peptides by MTT assay. In addition, human embryonic kidney cells 293T were also included in the experiment to examine the safety of the peptide against non-cancerous cells. […] Untreated cells as negative control group incubated with corresponding medium for 24 h. Subsequently, 10 uL, 5 mg/mL MTT (Sangon Biotech, Shanghai, China) solution was added to each well and incubated for 4 h at 37 °C. After the medium was discarded, 150 μL DMSO was added to each well for 10 min to dissolve formazan crystals. Absorbance was measured at 570 and 630 nm using a multiwall plate reader and the inhibition rate was expressed as the mean ± standard deviation (SD) of the triplicate data.

[3] = test system: human embryonic kidney cells (293T); assay: MTT assay on non-cancerous cells, 293T; assay type: cell-based
From the text: as §1, §2

[4] = test system: lung cancer cell line (A549); assay type: cell-based, human
From the text: as §1, §2

[5] = test system: cervical cancer cell line (HeLa); assay type: cell-based, human; settings: MTT assay, 6000 cells per well, peptides 0.5-128 μM for 24 h, triplicate, absorbance 570 and 630 nm; read-out: IC50 (μM) HeLa
From the text: as §1, §2

[6] = test system: colorectal adenocarcinoma cell line (LoVo); assay type: cell-based, human; settings: MTT assay, 6000 cells per well, peptides 0.5-128 μM for 24 h, triplicate, absorbance 570 and 630 nm; read-out: IC50 (μM) LoVo
From the text: as §1, §2

## CC[C@H](C)[C@H](NC(=O)[C@H](CC(C)C)NC(=O)[C@H](CC(C)C)NC(=O)[C@H](CC(=O)O)NC(=O)[C@H](CCCCN)NC(=O)[C@@H](NC(=O)[C@H](C)NC(=O)CNC(=O)[C@H](CC(C)C)NC(=O)[C@@H](NC(=O)CN)C(C)C)C(C)C)C(=O)NCC(=O)N[C@@H](C)C(=O)NCC(=O)N[C@@H](CCCCN)C(=O)N[C@@H](CO)C(=O)N[C@@H](C)C(=O)N[C@@H](C)C(=O)N[C@@H](CCC(N)=O)C(=O)N[C@@H](CO)C(=O)N[C@H](C(=O)N[C@@H](CC(C)C)C(=O)N[C@@H](CCCCN)C(=O)N[C@H](C(=O)N[C@@H](CC(C)C)C(=O)N[C@@H](CO)C(=O)N[C@H]1CSSC[C@@H](C(=O)O)NC(=O)[C@H](CC(=O)O)NC(=O)[C@H](CC(N)=O)NC(=O)[C@H](CO)NC(=O)[C@H](CC(C)C)NC(=O)[C@H](CCCCN)NC1=O)[C@@H](C)O)C(C)C [Odorranain-C1] (H-GVLGAVKDLLIGAGKSAAQSVLKTLSCKLSNDC-OH; disulfide 27-33)
[1]; hemolytic rate of 100 μM peptides more than 10% as the classification standard, 2% sheep erythrocytes
  hemolysis (in words): no hemolysis
[1]; peptide 2 μM, 2% SRBC in PBS, 37 °C, 1 h, absorbance 540 nm, triplicate
  Hemolytic effect on 2% sheep erythrocytes, peptide concentration 2 μM: − (The “−” symbol indicates the hemolysis rate of less than 10% at peptides concentration of 100 μM)
[1]; peptide 4 μM, 2% SRBC in PBS, 37 °C, 1 h, absorbance 540 nm, triplicate
  Hemolytic effect on 2% sheep erythrocytes, peptide concentration 4 μM: − (The “−” symbol indicates the hemolysis rate of less than 10% at peptides concentration of 100 μM)
[1]; peptide 8 μM, 2% SRBC in PBS, 37 °C, 1 h, absorbance 540 nm, triplicate
  Hemolytic effect on 2% sheep erythrocytes, peptide concentration 8 μM: − (The “−” symbol indicates the hemolysis rate of less than 10% at peptides concentration of 100 μM)
[1]; peptide 16 μM, 2% SRBC in PBS, 37 °C, 1 h, absorbance 540 nm, triplicate
  Hemolytic effect on 2% sheep erythrocytes, peptide concentration 16 μM: − (The “−” symbol indicates the hemolysis rate of less than 10% at peptides concentration of 100 μM)
[1]; peptide 32 μM, 2% SRBC in PBS, 37 °C, 1 h, absorbance 540 nm, triplicate
  Hemolytic effect on 2% sheep erythrocytes, peptide concentration 32 μM: − (The “−” symbol indicates the hemolysis rate of less than 10% at peptides concentration of 100 μM)
[1]; peptide 64 μM, 2% SRBC in PBS, 37 °C, 1 h, absorbance 540 nm, triplicate
  Hemolytic effect on 2% sheep erythrocytes, peptide concentration 64 μM: − (The “−” symbol indicates the hemolysis rate of less than 10% at peptides concentration of 100 μM)
[1]; peptide 128 μM, 2% SRBC in PBS, 37 °C, 1 h, absorbance 540 nm, triplicate
  Hemolytic effect on 2% sheep erythrocytes, peptide concentration 128 μM: − (The “−” symbol indicates the hemolysis rate of less than 10% at peptides concentration of 100 μM)
[1]; peptide 256 μM, 2% SRBC in PBS, 37 °C, 1 h, absorbance 540 nm, triplicate
  Hemolytic effect on 2% sheep erythrocytes, peptide concentration 256 μM: − (The “−” symbol indicates the hemolysis rate of less than 10% at peptides concentration of 100 μM)
[2]
  IC50: 41.2 µM
[3]; low toxicity when the IC50 value exceeded 50 μM, MTT, 24 h
  toxicity to 293T cells (in words): certain toxicity
[3]; non-cancerous cells, MTT assay, 6000 cells per well, peptides 0.5-128 μM for 24 h, triplicate, absorbance 570 and 630 nm, read-out: IC50 (μM) 293T
  IC50: 48.7 µM
[4]; MTT assay, 6000 cells per well, peptides 0.5-128 μM for 24 h, triplicate, absorbance 570 and 630 nm, read-out: IC50 (μM) A549
  IC50: 27.3 µM
[4]; MTT, 24 h, anticancer activity when IC50 less than 50 μM
  killing effects on lung cancer cell A549 (in words): effective killing effects
[5]
  IC50: 52.8 µM
[6]
  IC50: 55.2 µM
